Assay results published in US7462600B2, “Macrolides” (Pfizer Inc, priority 2004, dated 2008).
In brackets after ≈: the same amount, converted by molar mass. Read-outs that look alike come from different tables or passages of the source.

Legend:
Type in all cases: cell-based
[1] = system: Streptococcus pyogenes 1079; experiment: MIC, microtiter broth dilution (NCCLS M100-S14), S. pyogenes 1079 (ermB)
Summary of the method: (§1)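 Panel strains, including macrolide-resistant isolates and their susceptible parents where available, are exposed to serial compound dilutions in microtiter trays. Growth inhibition is scored as MIC under NCCLS M100-S14 standards.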

[2] = system: Streptococcus pneumoniae 1016; experiment: MIC, microtiter broth dilution (NCCLS M100-S14), S. pneumoniae 1016 (susceptible)
Summary of the method: as §1

[3] = system: Streptococcus pneumoniae 1095; settings: microtiter broth dilution
Summary of the method: as §1

[4] = system: Streptococcus pneumoniae 1175; settings: microtiter broth dilution
Summary of the method: as §1

[5] = system: Haemophilus influenzae 1218; experiment: MIC, microtiter broth dilution (NCCLS M100-S14), H. influenzae 1218 (susceptible)
Summary of the method: as §1

[6] = S. pneumoniae 1016 (susceptible)
[7] = H. influenzae 1218 (susceptible)

Molecule	MIC S. pyogenes 1079 ([1]; Streptococcus pyogenes 1079) [µg/mL]	MIC S. pneumo. 1016 ([2]; Streptococcus pneumoniae 1016) [µg/mL]	MIC S. pneumo. 1095 ([3]; Streptococcus pneumoniae 1095) [µg/mL]	MIC S. pneumo. 1175 ([4]; Streptococcus pneumoniae 1175) [µg/mL]	MIC H. influenzae 1218 ([5]; Haemophilus influenzae 1218) [µg/mL]	MIC S. pyogenes 1079 ([1]; S. pyogenes 1079 (ermB)) [µg/mL]	MIC S. pneumo. 1016 [2, 6] [µg/mL]	MIC S. pneumo. 1095 ([3]; S. pneumoniae 1095 (ermB)) [µg/mL]	MIC S. pneumo. 1175 ([4]; S. pneumoniae 1175 (mefA)) [µg/mL]	MIC H. influenzae 1218 [5, 7] [µg/mL]
CCC1OC(=O)C(C)(F)C(=O)C(C)C(OC2OC(C)CC(N(C)C)C2O)C(C)(OC)CC(C)C(=O)C(C)C2N(C3CN(S(=O)(=O)c4cccc5nccnc45)C3)C(=O)OC12C (stereo not shown) [Example 3.98, 3-descladinosyl-11,12-dideoxy-2-fluoro-6-O-methyl-3-oxo-12,11-(oxycarbonyl-(1-(quinoxaline-5-sulfonyl)-azetidin-3-yl)-imino)-erythromycin A]	0.25 (≈ 0.285 µM)	<0.063	<0.063	<0.063	0.25 (≈ 0.285 µM)					
CCC1OC(=O)C(C)C(=O)C(C)C(OC2OC(C)CC(N(C)C)C2O)C(C)(OC)CC(C)C(=O)C(C)C2N(C3CN(S(=O)(=O)c4ncn5ccccc45)C3)C(=O)OC12C (stereo not shown) [Example 3.19, 3-descladinosyl-11,12-dideoxy-6-O-methyl-3-oxo-12,11-(oxycarbonyl-(1-(H-imidazo[1,5-a]pyridine-1-sulfonyl)-azetidin-3-yl)-imino)-erythromycin A]	1 (≈ 1.18 µM)	<0.06	<0.06	<0.06	0.25 (≈ 0.295 µM)					
CC[C@H]1OC(=O)[C@H](C)C(=O)[C@H](C)[C@@H](O[C@@H]2O[C@H](C)C[C@H](N(C)C)[C@H]2O)[C@](C)(OC)C[C@@H](C)C(=O)[C@H](C)[C@H]2N(CC3(O)CN(C(=O)c4ccc5cccnc5c4)C3)C(=O)O[C@]12C [7.21]						>64.00	<0.06	0.5 (≈ 0.586 µM)	1 (≈ 1.17 µM)	2 (≈ 2.34 µM)
CCC1OC(=O)C(C)C(=O)C(C)C(OC2OC(C)CC(N(C)C)C2O)C(C)(OC)CC(C)C(=O)C(C)C2N(CC3CCCN3C(=O)c3ccc4cccnc4c3)C(=O)OC12C (stereo not shown) [12.12]						>64.00	<0.06	<0.06	1 (≈ 1.18 µM)	2 (≈ 2.35 µM)
CCC1OC(=O)C(C)C(=O)C(C)C(OC2OC(C)CC(N(C)C)C2O)C(C)(OC)CC(C)C(=O)C(C)C2N(CC3CCN(Cc4cnn(-c5ccccn5)c4)C3)C(=O)OC12C (stereo not shown) [11.14]						32 (≈ 37.5 µM)	<0.06	0.25 (≈ 0.293 µM)	0.25 (≈ 0.293 µM)	2 (≈ 2.34 µM)
CCC1OC(=O)C(C)C(=O)C(C)C(OC2OC(C)CC(N(C)C)C2O)C(C)(OC)CC(C)C(=O)C(C)C2N(CC3CN(S(=O)(=O)c4cccc(C#N)c4)C3)C(=O)OC12C (stereo not shown) [4.07]	>64.00	<0.06	24 (≈ 28.3 µM)	0.19 (≈ 0.224 µM)	1 (≈ 1.18 µM)					
CCC1OC(=O)C(C)C(=O)C(C)C(OC2OC(C)CC(N(C)C)C2O)C(C)(OC)CC(C)C(=O)C(C)C2N(C3CN(S(=O)(=O)c4cccc(-c5cnco5)c4)C3)C(=O)OC12C (stereo not shown) [Example 3.35, 3-descladinosyl-11,12-dideoxy-6-O-methyl-3-oxo-12,11-(oxycarbonyl-(1-(3-(oxazol-5-yl)benzenesulfonyl)-azetidin-3-yl)-imino)-erythromycin A]	1 (≈ 1.14 µM)	<0.06	<0.06	<0.06	0.12 (≈ 0.137 µM)					
CCC1OC(=O)C(C)C(=O)C(C)C(OC2OC(C)CC(N(C)C)C2O)C(C)(OC)CC(C)C(=O)C(C)C2N(C3CN(Cc4ccnc5nccnc45)C3)C(=O)OC12C (stereo not shown) [Example 1.24, 3-descladinosyl-11,12-dideoxy-6-O-methyl-3-oxo-12,11-(oxycarbonyl-(1-((pyrido[2,3-b]pyrazin-4-yl)-methy)-azetidin-3-yl)-imino)-erythromycin A]	4 (≈ 4.93 µM)	<0.06	<0.06	0.25 (≈ 0.308 µM)	1 (≈ 1.23 µM)					
CC[C@H]1OC(=O)[C@H](C)C(=O)[C@H](C)[C@@H](O[C@@H]2O[C@H](C)C[C@H](N(C)C)[C@H]2O)[C@](C)(OC)C[C@@H](C)C(=O)[C@H](C)[C@H]2N(CC3(O)CN(Cc4ccc5nccnc5c4)C3)C(=O)O[C@]12C [7.03]						>64.00	<0.06	0.12 (≈ 0.143 µM)	0.12 (≈ 0.143 µM)	0.5 (≈ 0.595 µM)
CCC1OC(=O)C(C)C(=O)C(C)C(OC2OC(C)CC(N(C)C)C2O)C(C)(OC)CC(C)C(=O)C(C)C2N(CC3CCCN3C(=O)c3cccc4nccnc34)C(=O)OC12C (stereo not shown) [10.33]						>64.00	<0.06	<0.06	0.25 (≈ 0.293 µM)	2 (≈ 2.35 µM)
CCC1OC(=O)C(C)C(=O)C(C)C(OC2OC(C)CC(N(C)C)C2O)C(C)(OC)CC(C)C(=O)C(C)C2N(CC3C4CN(C(=O)c5cccnc5)CC43)C(=O)OC12C (stereo not shown) [16.02]						>100.00	0.02 (≈ 0.0246 µM)	3.12 (≈ 3.84 µM)	0.78 (≈ 0.959 µM)	0.78 (≈ 0.959 µM)
CCc1noc(-c2cccc(CN3CC(N4C(=O)OC5(C)C(CC)OC(=O)C(C)C(=O)C(C)C(OC6OC(C)CC(N(C)C)C6O)C(C)(OC)CC(C)C(=O)C(C)C45)C3)c2)n1 (stereo not shown) [Example 1.44, 3-(3-ethyl-[1,2,4]oxadiazol-5-yl)benzyl]	>64.00	<0.06	<0.06	0.5 (≈ 0.585 µM)	16 (≈ 18.7 µM)					
CCC1OC(=O)C(C)C(=O)C(C)C(OC2OC(C)CC(N(C)C)C2O)C(C)(OC)CC(C)C(=O)C(C)C2N(CC3CCN(Cc4ccc(OC)nc4)C3)C(=O)OC12C (stereo not shown) [11.07]						16 (≈ 19.6 µM)	<0.06	<0.06	0.25 (≈ 0.306 µM)	1 (≈ 1.22 µM)
3-descladinosyl-11,12-dideoxy-6-O-methyl-3-oxo-12,11-(oxycarbonyl-(1-(quinoline-6-sulfonyl)-azetidin-3-yl)-imino)-erythromycin A [Example 3.89]	8	<0.06	<0.06	<0.06	1					
CCC1OC(=O)C(C)C(=O)C(C)C(OC2OC(C)CC(N(C)C)C2O)C(C)(OC)CC(C)C(=O)C(C)C2N(C3CN(S(=O)(=O)c4ccc(-c5ccn[nH]5)cc4)C3)C(=O)OC12C (stereo not shown) [Example 3.39, 3-descladinosyl-11,12-dideoxy-6-O-methyl-3-oxo-12,11-(oxycarbonyl-(1-(4-(1H-pyrazol-5-yl)benzenesulfonyl)-azetidin-3-yl)-imino)-erythromycin A]	0.25 (≈ 0.286 µM)	<0.06	<0.06	<0.06	0.5 (≈ 0.572 µM)					
CCC1OC(=O)C(C)C(=O)C(C)C(OC2OC(C)CC(N(C)C)C2O)C(C)(OC)CC(C)C(=O)C(C)C2N(C3CN(S(=O)(=O)c4ccc(C#N)cc4)C3)C(=O)OC12C (stereo not shown) [Example 3.11, 3-descladinosyl-11,12-dideoxy-6-O-methyl-3-oxo-12,11-(oxycarbonyl-(1-(4-cyanobenzenesulfonyl)-azetidin-3-yl)-imino)-erythromycin A]	8 (≈ 9.6 µM)	<0.06	<0.06	0.5 (≈ 0.6 µM)	0.25 (≈ 0.3 µM)					
CCOc1cnc2ncccc2c1CN1CC(N2C(=O)OC3(C)C(CC)OC(=O)C(C)C(=O)C(C)C(OC4OC(C)CC(N(C)C)C4O)C(C)(OC)CC(C)C(=O)C(C)C23)C1 (stereo not shown) [Example 1.108, 3-descladinosyl-11,12-dideoxy-6-O-methyl-3-oxo-12,11-(oxycarbonyl-(1-(3-ethoxy-1,8-naphthyridine-4-methyl)-azetidin-3-yl)-imino)-erythromycin A]	0.5 (≈ 0.585 µM)	<0.063	<0.063	0.125 (≈ 0.146 µM)	1 (≈ 1.17 µM)					
